T/C data for 21 compounds are collected here from PubChem BioAssay AID248 (DTP/NCI, 2004).

“And” between values parts separate entries of the source, which are not always exact repeats. Equal values may be shown once. Toxic doses and inconclusive results are not listed.

The test deals with L1210 leukemia ip in BDF1 mice, survival T/C. Kind of test: NCI In Vivo Anticancer Drug Screen. Data for tumor model L1210 Leukemia (intraperitoneal) in B6D2F1 (BDF1) mice. The conditions noted are these: endpoint: mean survival time, higher = longer survival. The procedure, abridged: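 Tumor was transplanted into mice, which were then dosed with test compound or vehicle alone. Survival was recorded for each group, and the treated figure was expressed relative to the control figure.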

The mark [1] stands for this setting: dose: 50.0 mg/kg/injection, schedule: Q01DX001 (ip), vehicle: saline.
The mark [2] stands for this setting: dose: 100.0 mg/kg/injection, schedule: Q01DX001 (ip), vehicle: saline.
[3] abbreviates: dose: 200.0 mg/kg/injection, schedule: Q01DX001 (ip), vehicle: saline.
Setting [4] is: dose: 100.0 mg/kg/injection, schedule: Q04DX002 (ip), vehicle: Klucel (hydroxypropylcellulose) (HPC).
Where [5] appears, read: dose: 200.0 mg/kg/injection, schedule: Q04DX002 (ip), vehicle: Klucel (hydroxypropylcellulose) (HPC).
[6] abbreviates: dose: 400.0 mg/kg/injection, schedule: Q04DX002 (ip), vehicle: Klucel (hydroxypropylcellulose) (HPC).
Where [7] appears, read: dose: 75.0 mg/kg/injection, schedule: Q01DX001 (ip), vehicle: saline.
The mark [8] stands for this setting: dose: 150.0 mg/kg/injection, schedule: Q01DX001 (ip), vehicle: saline.
The mark [9] stands for this setting: dose: 100.0 mg/kg/injection, schedule: Q01DX009 (ip), vehicle: saline with Tween-80.
Where [10] appears, read: dose: 200.0 mg/kg/injection, schedule: Q01DX009 (ip), vehicle: saline with Tween-80.
The mark [11] stands for this setting: dose: 400.0 mg/kg/injection, schedule: Q01DX009 (ip), vehicle: saline with Tween-80.
The mark [12] stands for this setting: dose: 75.0 mg/kg/injection, schedule: Q01DX001 (ip), vehicle: carboxymethylcellulose (CMC).
Where [13] appears, read: dose: 150.0 mg/kg/injection, schedule: Q01DX001 (ip), vehicle: carboxymethylcellulose (CMC).

On to `C[N+]1=C(/C=C/c2ccc(O)c3ncccc23)C(C)(C)c2ccccc21`, for which the T/C (dose: 7.5 mg/kg/injection, schedule: Q01DX009 (ip), vehicle: saline) is 93 % of control; the T/C (dose: 12.5 mg/kg/injection, schedule: Q01DX001 (ip), vehicle: saline) is 106 % of control; the T/C (dose: 15.0 mg/kg/injection, schedule: Q01DX009 (ip), vehicle: saline) is 109 % of control; the T/C (dose: 25.0 mg/kg/injection, schedule: Q01DX001 (ip), vehicle: saline) is 101 % of control; the T/C (dose: 30.0 mg/kg/injection, schedule: Q01DX009 (ip), vehicle: saline) is 104 % of control; the T/C under setting [1] is 113 % of control. For the same compound, the T/C was 101 % of control (dose: 60.0 mg/kg/injection, schedule: Q01DX009 (ip), vehicle: saline); 92 % of control and 117 % of control under setting [2]; 112 % of control under setting [3].

In the case of `C=CC[Si](Cl)(Cl)Cl`, the T/C runs as follows: under setting [1], 93 % of control; under setting [2], 98 % of control.

Consider `CN(C)S(=O)(=O)c1ccc(NC(=O)OCc2ccccc2)cc1`, for which the T/C under setting [2] was 96 % of control; the T/C under setting [3] is 94 % of control; the T/C (dose: 400.0 mg/kg/injection, schedule: Q01DX001 (ip), vehicle: saline) was 92 % of control.

`[Co+3].[NH-]CC(=O)O.[NH-]CC(=O)O.[NH-]CC(=O)O`: the T/C was 122 % of control (dose: 200.0 mg/kg/injection, schedule: Q04DX002 (ip), vehicle: saline with Tween-80) and 115 % of control (dose: 400.0 mg/kg/injection, schedule: Q04DX002 (ip), vehicle: saline with Tween-80).

On to `C=CCc1ccc(OC(=O)Nc2ccccc2Cl)c(OC)c1`, for which the T/C by setting is: under setting [4], 96 % of control; under setting [5], 96 % of control; under setting [6], 92 % of control.

Turning to `COC(=O)C(=O)c1c(-c2ccc[n+](Cc3ccccc3)c2)[nH]c2ccccc12`, the T/C is 101 % of control under setting [7] and 93 % of control under setting [8].

Regarding `Clc1ccc(OCc2ccccc2)c(Cl)c1`, the T/C under setting [4] is 106 % of control, the T/C under setting [5] was 106 % of control and the T/C under setting [6] is 95 % of control.

With `O=NN(CCCl)C(=O)NCC1CCC(CNC(=O)N(CCCl)N=O)CC1` (stereo unspecified), the T/C is 113 % of control (dose: 6.2 mg/kg/injection, schedule: Q01DX009 (ip), vehicle: carboxymethylcellulose (CMC)); 111 % of control (dose: 12.5 mg/kg/injection, schedule: Q01DX009 (ip), vehicle: carboxymethylcellulose (CMC)); 101 % of control (dose: 25.0 mg/kg/injection, schedule: Q01DX009 (ip), vehicle: Klucel (hydroxypropylcellulose) (HPC)); 122 % of control (dose: 25.0 mg/kg/injection, schedule: Q01DX009 (ip), vehicle: carboxymethylcellulose (CMC)); 98 % of control (dose: 50.0 mg/kg/injection, schedule: Q01DX009 (ip), vehicle: Klucel (hydroxypropylcellulose) (HPC)); 117 % of control (dose: 53.0 mg/kg/injection, schedule: Q01DX001 (ip), vehicle: carboxymethylcellulose (CMC)). In addition, the T/C runs as follows: (dose: 80.0 mg/kg/injection, schedule: Q01DX001 (ip), vehicle: carboxymethylcellulose (CMC)) 117 % of control; (dose: 100.0 mg/kg/injection, schedule: Q01DX009 (ip), vehicle: Klucel (hydroxypropylcellulose) (HPC)) 109 % of control; (dose: 177.0 mg/kg/injection, schedule: Q01DX001 (ip), vehicle: carboxymethylcellulose (CMC)) 150 % of control; (dose: 177.0 mg/kg/injection, schedule: Q01DX009 (ip), vehicle: carboxymethylcellulose (CMC)) 278 % of control; (dose: 266.0 mg/kg/injection, schedule: Q01DX001 (ip), vehicle: carboxymethylcellulose (CMC)) 225 % of control; (dose: 266.0 mg/kg/injection, schedule: Q01DX009 (ip), vehicle: carboxymethylcellulose (CMC)) 188 % of control. Also, the T/C (dose: 400.0 mg/kg/injection, schedule: Q01DX001 (ip), vehicle: carboxymethylcellulose (CMC)) is 275 % of control; the T/C (dose: 400.0 mg/kg/injection, schedule: Q01DX009 (ip), vehicle: carboxymethylcellulose (CMC)) is 103 % of control; the T/C (dose: 600.0 mg/kg/injection, schedule: Q01DX001 (ip), vehicle: carboxymethylcellulose (CMC)) is 250 % of control.

Turning to `CCC1CN2CCc3cc(OC)c(OC)cc3C2CC1=O` (stereo unspecified), the T/C reads like this: (dose: 50.0 mg/kg/injection, schedule: Q01DX009 (ip), vehicle: saline with Tween-80) 102 % of control; under setting [9], 103 % of control and 108 % of control; under setting [10], 124 % of control.

Take `Oc1ccc2ccccc2c1Cc1ccccc1`: the T/C reads like this: under setting [9], 99 % of control; under setting [10], 89 % of control; under setting [11], 92 % of control.

For `O=c1[nH]c2cccnc2c(=O)n1O`, the T/C runs as follows: (dose: 175.0 mg/kg/injection, schedule: Q04DX003 (ip), vehicle: carboxymethylcellulose (CMC)) 108 % of control; (dose: 350.0 mg/kg/injection, schedule: Q04DX003 (ip), vehicle: carboxymethylcellulose (CMC)) 92 % of control.

As to `NNC(=S)Nc1cccc2ccccc12`, the T/C reads like this: under setting [12], 93 % of control; under setting [13], 93 % of control.

In the case of `O=C(O)/C=C/C1CCCCC1`, the T/C runs as follows: under setting [7], 97 % of control; under setting [8], 95 % of control; (dose: 300.0 mg/kg/injection, schedule: Q01DX001 (ip), vehicle: saline) 95 % of control.

`Nc1ncnn1C(=O)NCCCl`: the T/C is 94 % of control (dose: 100.0 mg/kg/injection, schedule: Q01DX009 (ip), vehicle: saline); 101 % of control (dose: 100.0 mg/kg/injection, schedule: Q04DX003 (ip), vehicle: saline); 97 % of control (dose: 200.0 mg/kg/injection, schedule: Q01DX009 (ip), vehicle: saline); 101 % of control (dose: 200.0 mg/kg/injection, schedule: Q04DX003 (ip), vehicle: saline); 97 % of control (dose: 400.0 mg/kg/injection, schedule: Q01DX009 (ip), vehicle: saline); 101 % of control (dose: 400.0 mg/kg/injection, schedule: Q04DX003 (ip), vehicle: saline).

Consider `CN(C)c1ccc(C(=O)CCCN2CCC3(CC2)C(=O)NCN3c2ccccc2)cc1`, for which the T/C by setting is: (dose: 100.0 mg/kg/injection, schedule: Q01DX001 (ip), vehicle: Klucel (hydroxypropylcellulose) (HPC)) 100 % of control; (dose: 200.0 mg/kg/injection, schedule: Q01DX001 (ip), vehicle: Klucel (hydroxypropylcellulose) (HPC)) 94 % of control; (dose: 400.0 mg/kg/injection, schedule: Q01DX001 (ip), vehicle: Klucel (hydroxypropylcellulose) (HPC)) 100 % of control.

As to `CCNC(=O)NCc1ccccc1Cl`, the T/C reads like this: under setting [4], 97 % of control; under setting [5], 102 % of control; under setting [6], 112 % of control.

For the compound `Cc1cc(=O)[nH]c(N2C(=O)c3ccccc3C2=O)n1`, the T/C is, setting by setting: (dose: 25.0 mg/kg/injection, schedule: Q04DX003 (ip), vehicle: Klucel (hydroxypropylcellulose) (HPC)) 99 % of control; (dose: 50.0 mg/kg/injection, schedule: Q04DX003 (ip), vehicle: Klucel (hydroxypropylcellulose) (HPC)) 102 % of control.

As for `CC(C)=C(CSC#N)S(=O)(=O)c1ccc(C)cc1`, the T/C (dose: 3.12 mg/kg/injection, schedule: Q01DX009 (ip), vehicle: Klucel (hydroxypropylcellulose) (HPC)) was 103 % of control; the T/C (dose: 6.25 mg/kg/injection, schedule: Q01DX009 (ip), vehicle: Klucel (hydroxypropylcellulose) (HPC)) is 101 % of control; the T/C (dose: 12.5 mg/kg/injection, schedule: Q01DX009 (ip), vehicle: Klucel (hydroxypropylcellulose) (HPC)) is 97 % of control.

Turning to `COC(=O)C=P(c1ccccc1)(c1ccccc1)c1ccccc1`, the T/C runs as follows: under setting [12], 98 % of control; under setting [13], 98 % of control; (dose: 300.0 mg/kg/injection, schedule: Q01DX001 (ip), vehicle: carboxymethylcellulose (CMC)) 101 % of control.

Regarding `OC1(c2ccccc2)c2ccccc2-c2ccccc21`, the T/C was 101 % of control under setting [9]; 98 % of control (dose: 100.0 mg/kg/injection, schedule: Q04DX003 (ip), vehicle: saline with Tween-80); 106 % of control under setting [10]; 93 % of control (dose: 200.0 mg/kg/injection, schedule: Q04DX003 (ip), vehicle: saline with Tween-80); 106 % of control under setting [11]; 95 % of control (dose: 400.0 mg/kg/injection, schedule: Q04DX003 (ip), vehicle: saline with Tween-80).

For `NC(=O)NCN1C(=O)c2ccccc2C1=O`, the T/C is 100 % of control under setting [4], 94 % of control under setting [5] and 90 % of control under setting [6].
